# Results taken from ChEMBL document CHEMBL1137703, “Predictive QSAR modeling of HIV reverse transcriptase inhibitor TIBO derivatives” (Eur J Med Chem, 2009).
# Target: Human immunodeficiency virus type 1 reverse transcriptase (Human immunodeficiency virus 1, UniProt Q72547)
# Experiment: Inhibition of HIV1 reverse transcriptase
# Settings: not given
row,Compound,log(1/IC50)
1,CCCN1CCn2c(=S)[nH]c3cccc(c32)C1C (configuration not stated),5.61
2,CCCN1Cc2cccc3[nH]c(=O)n(c23)CC1C (configuration not stated),4.22

# More lines, now with the values ahead:
row,log(1/IC50),Compound
1,5.78,CCCN1Cc2cccc3[nH]c(=S)n(c23)CC1C (configuration not stated)
2,5.66,CC1CN(CC2CC2)Cc2cc(Cl)cc3[nH]c(=S)n1c23 (configuration not stated)

# Same assay, conditions: read-out: log(1/IC50) (converted)
row,Compound,IC50 [nM]
1,CSc1ccc2[nH]c(=S)n3c2c1CN(C=C(C)C)[C@@H](C)C3,5
2,CC(C)=CN1Cc2c(F)ccc3[nH]c(=S)n(c23)C[C@@H]1C,5.82
3,C[C@H]1[C@H](C)n2c(=S)[nH]c3cccc(c32)CN1CC1CC1 (relative stereo),13500
4,C[C@H]1Cn2c(=O)[nH]c3cc(N)cc(c32)CN1CC1CC1,60500
5,C=C(C)N1Cc2cccc3[nH]c(=O)n(c23)CC1CC (configuration not stated),50100
6,C=C(CC)N1CCn2c(=O)[nH]c3cccc(c32)C1,37200
7,CC(C)=CN1[C@H](C)Cn2c(=S)[nH]c3cc(Cl)cc(c32)[C@H]1C,479
8,CC(C)=CN1Cc2c(C(N)=O)ccc3[nH]c(=O)n(c23)C[C@@H]1C,6350
9,CC(C)=CN1CCn2c(=O)[nH]c3cc(Cl)cc(c32)C1C (configuration not stated),162
10,C[C@H]1Cn2c(=S)[nH]c3cc(Cl)cc(c32)CN1CC1CC1,33.9
11,CC(C)=CN1Cc2ccc(Br)c3[nH]c(=S)n(c23)C[C@@H]1C,1070
12,CC(C)=CN1CCn2c(=S)[nH]c3cc(Cl)cc(c32)C1C (configuration not stated),22.9
13,CC(C)=CN1Cc2cc(Cl)cc3[nH]c(=O)n(c23)C[C@@H]1C,182
14,COc1ccc2c3c1[nH]c(=O)n3C[C@H](C)N(C=C(C)C)C2,6610
15,CC(C)=CN1CCn2c(=S)[nH]c3ccc(Cl)c(c32)C1C (configuration not stated),12
16,CCOc1ccc2[nH]c(=S)n3c2c1CN(C=C(C)C)[C@@H](C)C3,95.9
17,C#Cc1ccc2[nH]c(=S)n3c2c1CN(C=C(C)C)[C@@H](C)C3,29.5
18,CC(C)=CN1CCn2c(=O)[nH]c3cccc(c32)C1,12600
19,CC(C)=CN1CCn2c(=S)[nH]c3cccc(c32)C1C (configuration not stated),77.6
20,C=C(C)N1Cc2cccc3[nH]c(=O)n(c23)CC1C(C)C (configuration not stated),10000
21,CC(C)=CN1Cc2cccc3[nH]c(=S)n(c23)C[C@@H]1C,44.2
22,CC(C)=CN1Cc2c(C#N)ccc3[nH]c(=O)n(c23)C[C@@H]1C,1150
23,CC(C)=CN1Cc2c(C#N)ccc3[nH]c(=S)n(c23)C[C@@H]1C,56.2
24,CC(C)=CN1CCn2c(=O)[nH]c3cccc(c32)C1C (configuration not stated),12000

row,Compound,IC50 [nM]
1,C[C@H]1Cn2c(=S)[nH]c3cc([N+](=O)[O-])cc(c32)CN1CC1CC1,2450
2,COc1ccc2[nH]c(=S)n3c2c1CN(C=C(C)C)[C@@H](C)C3,34
3,CCCN1CCn2c(=O)[nH]c3cccc(c32)C1C (configuration not stated),83200
4,C/C=C1/C[C@H]2Cn3c(=S)[nH]c4cc(Cl)cc(c43)CN2C1,3800
5,C[C@H]1Cn2c(=S)[nH]c3cccc(c32)CN1CC1CC1,60.3
6,C[C@H]1Cn2c(=O)[nH]c3cc(N(C)C)cc(c32)CN1CC1CC1,6650
7,CC(C)=CN1Cc2cccc3[nH]c(=S)n(c23)CC1C (configuration not stated),97.7
8,CC(C)=CN1[C@@H](C)Cn2c(=O)[nH]c3cc(Cl)cc(c32)[C@@H]1C,5010
9,CC(C)=CN1CCn2c(=S)[nH]c3ccc(Cl)c(c32)C1,45.7
10,C=C(C)N1Cc2cccc3[nH]c(=O)n(c23)CC1C (configuration not stated),34700
11,C#Cc1ccc2[nH]c(=O)n3c2c1CN(C=C(C)C)[C@@H](C)C3,437
12,CC(C)=CN1Cc2cc(F)cc3[nH]c(=S)n(c23)C[C@@H]1C,25
13,CC(C)=CN1Cc2c(I)ccc3[nH]c(=S)n(c23)C[C@@H]1C,47.9
14,C=C(C)N1Cc2cc(Cl)cc3[nH]c(=S)n(c23)C(C)C1 (configuration not stated),676
15,CC(C)=CN1Cc2c(C=O)ccc3[nH]c(=S)n(c23)C[C@@H]1C,186
16,C[C@H]1Cn2c(=O)[nH]c3ccc(N(C)C)c(c32)CN1CC1CC1,6650
17,C=C(C)N1Cc2cccc3[nH]c(=O)n(c23)C(CCC)C1 (configuration not stated),47900
18,CC(C)=CN1Cc2c(C)ccc3[nH]c(=S)n(c23)C[C@@H]1C,13.6
19,C[C@H]1Cn2c(=O)[nH]c3cc([N+](=O)[O-])cc(c32)CN1CC1CC1,33400
20,S=c1[nH]c2cccc3c2n1C(Cc1ccccc1)C(Cc1ccccc1)N(CC1CC1)C3 (configuration not stated),10000
21,C=C(C)N1CCn2c(=O)[nH]c3cccc(c32)C1,46800
22,CC(C)=CN1Cc2c(I)ccc3[nH]c(=O)n(c23)C[C@@H]1C,87.1
23,CC(C)=CN1Cc2cc(Cl)c(Cl)c3[nH]c(=S)n(c23)C[C@@H]1C,25.6

# The next lines start with the values.
row,IC50 [nM],Compound
1,41.7,CC(C)=CN1[C@@H](C)Cn2c(=S)[nH]c3cccc(c32)[C@@H]1C (relative stereo)
2,3.01,CC(C)=CN1Cc2c(Br)ccc3[nH]c(=S)n(c23)C[C@@H]1C
3,70100,C=CCN1Cc2cccc3[nH]c(=O)n(c23)C[C@@H]1C
4,3310,CC(C)=CN1Cc2cccc3[nH]c(=O)n(c23)C[C@@H]1C
5,74100,CCCN1Cc2cccc3[nH]c(=O)n(c23)C(C(C)C)C1 (configuration not stated)
6,145,CC(C)=CN1CCn2c(=O)[nH]c3ccc(Cl)c(c32)C1C (configuration not stated)
7,22900,C=C(C)N1Cc2cccc3[nH]c(=O)n(c23)CC1(C)C
8,229,CC(C)=CN1[C@H](C)Cn2c(=O)[nH]c3cc(Cl)cc(c32)[C@H]1C
9,12600,C=C(C)N1Cc2cccc3[nH]c(=O)n(c23)C(C(C)C)C1 (configuration not stated)
10,89100,CCCN1CCn2c(=O)[nH]c3cccc(c32)C1
11,5.01,CC(C)=CN1Cc2c(Cl)ccc3[nH]c(=S)n(c23)C[C@@H]1C
12,2240,CC(C)=CN1Cc2cccc3[nH]c(=S)n(c23)[C@@H](C)[C@H]1C (relative stereo)
13,47.4,CC(C)=CN1Cc2c(Br)ccc3[nH]c(=O)n(c23)C[C@@H]1C
14,56200,CC(C)=CN1Cc2cccc3[nH]c(=O)n(c23)[C@@H](C)[C@H]1C (relative stereo)
15,1150,CC(C)=CN1[C@H](C)c2cccc3[nH]c(=S)n(c23)C[C@@H]1C (relative stereo)
16,1000,CC(C)=CN1Cc2c(C)ccc3[nH]c(=O)n(c23)C[C@@H]1C
17,32400,C=C(C)N1Cc2cccc3[nH]c(=O)n(c23)C(C)C1 (configuration not stated)
18,26.3,C=C(C)N1Cc2cccc3[nH]c(=S)n(c23)C[C@@H]1C
19,25700,CC(C)=CN1C[C@H](C)n2c(=S)[nH]c3cccc(c32)[C@H]1C (relative stereo)
20,4680,COc1ccc2c3c1[nH]c(=S)n3C[C@H](C)N(C=C(C)C)C2
21,162,CC(C)=CN1CCn2c(=S)[nH]c3cc(Cl)cc(c32)C1
22,14500,CC(C)=CN1Cc2cccc3[nH]c(=S)n(c23)[C@@H](C)[C@@H]1C (relative stereo)
23,42.7,CC(C)=CN1Cc2cc(Cl)cc3[nH]c(=S)n(c23)C[C@@H]1C
24,2000,S=c1[nH]c2cc(Cl)cc3c2n1CCN1CCCCC31 (configuration not stated)
25,10000,CC(C)=CN1Cc2cccc3[nH]c(=O)n(c23)CC1C(C)C (configuration not stated)
26,50100,CCCN1Cc2cc(Cl)cc3[nH]c(=S)n(c23)C(=O)C1C (configuration not stated)
